From ChEMBL document CHEMBL1138234, “Planarity and constraint of the carbonyl groups in 1,2-diones are determinants for selective inhibition of human carboxylesterase 1” (J Med Chem, 2007)

What was measured:
[1] = Inhibition of human intestinal carboxylesterase
[2] = biological target: Cholinesterase (Homo sapiens, UniProt P06276); assay: Inhibition of human butyrylcholinesterase
[3] = biological target: T1, Liver carboxylesterase 1 (Homo sapiens, UniProt P23141); assay: Inhibition of human carboxylesterase 1
T1 sequence (P23141 whole entry): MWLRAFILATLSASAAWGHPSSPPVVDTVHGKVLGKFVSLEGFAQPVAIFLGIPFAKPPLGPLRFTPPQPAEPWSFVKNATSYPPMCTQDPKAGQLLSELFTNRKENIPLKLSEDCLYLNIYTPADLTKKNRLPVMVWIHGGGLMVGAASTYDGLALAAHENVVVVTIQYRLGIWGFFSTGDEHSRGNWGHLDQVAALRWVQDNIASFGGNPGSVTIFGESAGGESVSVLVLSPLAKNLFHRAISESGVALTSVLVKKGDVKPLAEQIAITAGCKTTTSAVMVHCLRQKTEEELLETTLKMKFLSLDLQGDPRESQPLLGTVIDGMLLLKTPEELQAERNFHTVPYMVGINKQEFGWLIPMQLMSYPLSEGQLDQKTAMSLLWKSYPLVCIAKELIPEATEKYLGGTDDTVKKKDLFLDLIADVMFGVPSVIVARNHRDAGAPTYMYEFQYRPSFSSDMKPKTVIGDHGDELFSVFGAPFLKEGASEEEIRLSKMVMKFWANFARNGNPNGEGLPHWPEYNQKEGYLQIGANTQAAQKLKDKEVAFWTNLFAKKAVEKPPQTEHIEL

[4] = biological target: Acetylcholinesterase (Homo sapiens, UniProt P22303); assay: Inhibition of human acetylcholinesterase 1
Sequence of Acetylcholinesterase (P22303 whole entry): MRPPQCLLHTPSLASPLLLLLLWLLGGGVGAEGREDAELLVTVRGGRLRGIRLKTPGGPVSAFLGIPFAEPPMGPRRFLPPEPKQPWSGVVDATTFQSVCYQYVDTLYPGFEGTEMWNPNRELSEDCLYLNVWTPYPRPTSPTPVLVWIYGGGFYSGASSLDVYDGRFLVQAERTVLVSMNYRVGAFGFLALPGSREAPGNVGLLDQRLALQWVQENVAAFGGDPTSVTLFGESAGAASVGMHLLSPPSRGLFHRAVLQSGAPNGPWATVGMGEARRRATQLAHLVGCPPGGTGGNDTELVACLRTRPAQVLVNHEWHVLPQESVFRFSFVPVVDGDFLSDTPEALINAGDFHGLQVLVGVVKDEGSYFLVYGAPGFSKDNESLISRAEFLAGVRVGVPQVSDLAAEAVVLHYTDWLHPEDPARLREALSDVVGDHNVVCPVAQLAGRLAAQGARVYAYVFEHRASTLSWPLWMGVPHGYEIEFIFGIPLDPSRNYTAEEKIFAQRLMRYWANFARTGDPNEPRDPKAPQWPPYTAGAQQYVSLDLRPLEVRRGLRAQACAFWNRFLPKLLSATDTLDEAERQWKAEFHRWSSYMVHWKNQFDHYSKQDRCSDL

Sequence of Cholinesterase (P06276 whole entry): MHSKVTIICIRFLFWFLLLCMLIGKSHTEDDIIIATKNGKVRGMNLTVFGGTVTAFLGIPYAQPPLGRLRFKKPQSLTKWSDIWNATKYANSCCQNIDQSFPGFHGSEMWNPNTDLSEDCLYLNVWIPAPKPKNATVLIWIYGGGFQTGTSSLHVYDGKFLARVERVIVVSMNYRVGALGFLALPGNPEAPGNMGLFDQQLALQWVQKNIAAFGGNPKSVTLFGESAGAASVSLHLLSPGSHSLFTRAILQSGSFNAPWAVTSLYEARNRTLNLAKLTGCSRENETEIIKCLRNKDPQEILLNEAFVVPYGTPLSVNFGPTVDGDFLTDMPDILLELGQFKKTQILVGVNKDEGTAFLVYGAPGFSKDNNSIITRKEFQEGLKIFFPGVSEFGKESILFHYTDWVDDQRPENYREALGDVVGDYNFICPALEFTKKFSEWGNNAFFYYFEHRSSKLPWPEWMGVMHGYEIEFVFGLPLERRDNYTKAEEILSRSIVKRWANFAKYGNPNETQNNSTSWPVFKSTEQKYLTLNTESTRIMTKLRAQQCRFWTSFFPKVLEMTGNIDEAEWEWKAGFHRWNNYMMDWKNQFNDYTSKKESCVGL

Question: With O=C(C(=O)C1CCCCC1)C1CCCCC1 as the compound, how does the Ki [1] read?
Answer: 0.005 µM

Question: And the Ki [2]?
Answer: > 100 µM

Question: What about the Ki [3] of the same compound?
Answer: 0.072 µM

Question: What about the Ki [4] of the same compound?
Answer: > 100 µM

Question: What does the source list for O=C1Cc2ccccc2C1=O?
Answer: Ki [1]: 5.47 µM; Ki [2]: 2.63 µM; Ki [3]: 5.24 µM; Ki [4]: > 100 µM

Question: Which results are given for O=C1C(=O)c2ccc([N+](=O)[O-])c3c([N+](=O)[O-])ccc1c23?
Answer: Ki [1]: 0.62 µM; Ki [2]: 3.1 µM; Ki [3]: 0.57 µM; Ki [4]: 0.903 µM

Question: Which Ki [1] does the source give for O=C1C(=O)c2cccc3c2N(CCC3)C1=O here?
Answer: > 100 µM

Question: And the Ki [2]?
Answer: > 100 µM

Question: What about the Ki [3] of the same compound?
Answer: 5.38 µM

Question: What about the Ki [4] of the same compound?
Answer: > 100 µM

Question: Which Ki [1] does the source give for COc1ccccc1C(=O)C(=O)c1ccccc1OC here?
Answer: > 100 µM

Question: What about the Ki [2] of the same compound?
Answer: > 100 µM

Question: What about the Ki [3] of the same compound?
Answer: > 100 µM

Question: Which Ki [1] does the source give for O=C1C(=O)c2c3ccccc3cc3cccc1c23 here?
Answer: 0.0077 µM

Question: And the Ki [2]?
Answer: > 100 µM

Question: What about the Ki [3] of the same compound?
Answer: 0.0015 µM

Question: And the Ki [4]?
Answer: > 100 µM

Question: Which Ki [1] does the source give for O=C1C(=O)c2cccnc2-c2ncccc21 here?
Answer: > 100 µM

Question: And the Ki [2]?
Answer: > 100 µM

Question: And the Ki [3]?
Answer: 5.4 µM

Question: And the Ki [4]?
Answer: > 100 µM

Question: For COc1ccc(C(=O)C(=O)c2ccc(C(=O)O)cc2)cc1, which Ki [2] is on record?
Answer: > 100 µM

Question: And the Ki [4]?
Answer: > 100 µM

Question: With O=C1C(=O)c2ccccc2CCc2ccccc21 as the compound, how does the Ki [1] read?
Answer: 6.15 µM

Question: And the Ki [2]?
Answer: > 100 µM

Question: What about the Ki [3] of the same compound?
Answer: 2.98 µM

Question: What about the Ki [4] of the same compound?
Answer: > 100 µM

Question: With CCOc1ccc(C(=O)C(=O)c2ccc(OCC)cc2)cc1 as the compound, how does the Ki [1] read?
Answer: 1.42 µM

Question: What about the Ki [2] of the same compound?
Answer: > 100 µM

Question: And the Ki [3]?
Answer: > 100 µM

Question: What about the Ki [4] of the same compound?
Answer: > 100 µM

Question: What does the source list for O=C(C(=O)c1ccc([N+](=O)[O-])cc1)c1ccc([N+](=O)[O-])cc1?
Answer: Ki [1]: 0.47 µM; Ki [2]: > 100 µM; Ki [3]: 9.8 µM; Ki [4]: > 100 µM

Question: With Cc1cc(C)c(C(=O)C(=O)c2c(C)cc(C)cc2C)c(C)c1 as the compound, how does the Ki [1] read?
Answer: 4.04 µM

Question: And the Ki [2]?
Answer: > 100 µM

Question: What about the Ki [3] of the same compound?
Answer: > 100 µM

Question: What about the Ki [4] of the same compound?
Answer: > 100 µM

Question: With O=C1C(=O)N2CCCc3cccc1c32 as the compound, how does the Ki [1] read?
Answer: 4.13 µM

Question: And the Ki [2]?
Answer: > 100 µM

Question: What about the Ki [3] of the same compound?
Answer: 1.54 µM

Question: And the Ki [4]?
Answer: > 100 µM

Question: With O=C1C(=O)c2sccc2-c2ccsc21 as the compound, how does the Ki [1] read?
Answer: 0.85 µM

Question: What about the Ki [2] of the same compound?
Answer: > 100 µM

Question: And the Ki [3]?
Answer: 0.15 µM

Question: What about the Ki [4] of the same compound?
Answer: > 100 µM

Question: For O=C1C(=O)c2cc([N+](=O)[O-])ccc2-c2ccccc21, which Ki [1] is on record?
Answer: 0.107 µM

Question: What about the Ki [2] of the same compound?
Answer: 1.67 µM

Question: And the Ki [3]?
Answer: 0.0159 µM

Question: And the Ki [4]?
Answer: 0.85 µM

Question: What does the source list for CC1(C)[C@@H]2CC[C@]1(C)C(=O)C2=O (racemic)?
Answer: Ki [1]: > 100 µM; Ki [2]: > 100 µM; Ki [3]: > 100 µM; Ki [4]: > 100 µM

Question: Which Ki [1] does the source give for O=C1C=Cc2ccccc2C1=O [1,2-NAPHTHOQUINONE] here?
Answer: 2.4 µM

Question: What about the Ki [2] of the same compound?
Answer: 2.29 µM

Question: What about the Ki [3] of the same compound?
Answer: 0.93 µM

Question: What about the Ki [4] of the same compound?
Answer: 0.32 µM

Question: For O=C1C(=O)c2ccccc2-c2ccccc21 [9,10-PHENANTHRENEQUINONE], which Ki [2] is on record?
Answer: 0.19 µM

Question: And the Ki [3]?
Answer: 0.0025 µM

Question: What about the Ki [4] of the same compound?
Answer: > 100 µM

Question: For O=C1C(=O)c2cccc3cccc1c23 [ACENAPHTHOQUINONE], which Ki [2] is on record?
Answer: 2.97 µM

Question: And the Ki [3]?
Answer: 0.031 µM

Question: What about the Ki [4] of the same compound?
Answer: > 100 µM
